Source: PubChem BioAssay AID1919001 (Molecular Pharmacology Branch, DTP, NCI, 2023)

Tested on: 699152-130-R-J1-PDC complex spheroid growth
Assay: Anticancer human tumor 699152-130-R-J1-PDC patient-derived pancreatic carcinoma cell line growth inhibition [AhR]
Settings: for IC50: curve of first compound; for viability, T/C: stronger effect = lower value
Summary of the method: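 Complex tumor spheroids co-cultured with HUVEC and human MSC stroma; AhR antagonists tested in combination with standard-of-care and investigational agents. Top concentration at or near clinical Cmax (else 10 microM), half-log dilutions; growth expressed as percent test/control.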

[1] = second compound 0.1 µM, first compound 0.0316 µM
[2] = second compound 0.1 µM, first compound 0.1 µM
[3] = second compound 0.1 µM, first compound 0.316 µM
[4] = second compound 0.1 µM, first compound 1 µM
[5] = second compound 0.316 µM, first compound 0.0316 µM
[6] = second compound 0.316 µM, first compound 0.1 µM
[7] = second compound 0.316 µM, first compound 0.316 µM
[8] = second compound 0.316 µM, first compound 1 µM
[9] = second compound 1 µM, first compound 0.0316 µM
[10] = second compound 1 µM, first compound 0.1 µM
[11] = second compound 1 µM, first compound 0.316 µM
[12] = second compound 1 µM, first compound 1 µM
[13] = second compound 3.16 µM, first compound 0.0316 µM
[14] = second compound 3.16 µM, first compound 0.1 µM
[15] = second compound 3.16 µM, first compound 0.316 µM
[16] = second compound 3.16 µM, first compound 1 µM
[17] = second compound 10 µM, first compound 0.0316 µM
[18] = second compound 10 µM, first compound 0.1 µM
[19] = second compound 10 µM, first compound 0.316 µM
[20] = second compound 10 µM, first compound 1 µM
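Also: compound exposure lasted 7 days after spheroids had grown for 3 days.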

## CC1COCCN1c1cc(-c2ccnn2C)c2ccnc(-c3ccn[nH]3)c2n1 (stereo not given) + Cc1cncc(-c2nc(NCCc3c[nH]c4ccccc34)c3ncn(C(C)C)c3n2)c1
Second compound 0.1 µM
  IC50: > 1000 nM
Second compound 0.316 µM
  IC50: > 1000 nM
Second compound 1 µM
  IC50: > 1000 nM
Second compound 3.16 µM
  IC50: 489 nM
Second compound 10 µM
  IC50: < 3.16 nM
Second compound 0.1 µM, first compound 0.00316 µM
  viability, T/C: 109%
Second compound 0.1 µM, first compound 0.01 µM
  viability, T/C: 94.4%
[1]
  viability, T/C: 107%
[2]
  viability, T/C: 96.5%
[3]
  viability, T/C: 75.7%
[4]
  viability, T/C: 64.4%
Second compound 0.316 µM, first compound 0.00316 µM
  viability, T/C: 119%
Second compound 0.316 µM, first compound 0.01 µM
  viability, T/C: 122%
[5]
  viability, T/C: 103%
[6]
  viability, T/C: 88.3%
[7]
  viability, T/C: 81.6%
[8]
  viability, T/C: 62%
Second compound 1 µM, first compound 0.00316 µM
  viability, T/C: 127%
Second compound 1 µM, first compound 0.01 µM
  viability, T/C: 128%
[9]
  viability, T/C: 135%
[10]
  viability, T/C: 105%
[11]
  viability, T/C: 79.9%
[12]
  viability, T/C: 64.9%
Second compound 3.16 µM, first compound 0.00316 µM
  viability, T/C: 77.6%
Second compound 3.16 µM, first compound 0.01 µM
  viability, T/C: 64.1%
[13]
  viability, T/C: 67.2%
[14]
  viability, T/C: 57.4%
[15]
  viability, T/C: 52.5%
[16]
  viability, T/C: 46%
Second compound 10 µM, first compound 0.00316 µM
  viability, T/C: 5.06%
Second compound 10 µM, first compound 0.01 µM
  viability, T/C: 5.37%
[17]
  viability, T/C: 5.23%
[18]
  viability, T/C: 5.76%
[19]
  viability, T/C: 7.12%
[20]
  viability, T/C: 9.33%

## CC1COCCN1c1cc(C2(S(C)(=N)=O)CC2)nc(-c2ccnc3[nH]ccc23)n1 (stereo not given) + Cc1cncc(-c2nc(NCCc3c[nH]c4ccccc34)c3ncn(C(C)C)c3n2)c1
Second compound 0.1 µM
  IC50: > 10000 nM
Second compound 0.316 µM
  IC50: > 10000 nM
Second compound 1 µM
  IC50: > 10000 nM
Second compound 3.16 µM
  IC50: > 10000 nM
Second compound 10 µM
  IC50: < 31.6 nM
[1]
  viability, T/C: 98.9%
[2]
  viability, T/C: 103%
[3]
  viability, T/C: 113%
[4]
  viability, T/C: 95.9%
Second compound 0.1 µM, first compound 3.16 µM
  viability, T/C: 85.3%
Second compound 0.1 µM, first compound 10 µM
  viability, T/C: 74.8%
[5]
  viability, T/C: 96.5%
[6]
  viability, T/C: 106%
[7]
  viability, T/C: 114%
[8]
  viability, T/C: 119%
Second compound 0.316 µM, first compound 3.16 µM
  viability, T/C: 95.1%
Second compound 0.316 µM, first compound 10 µM
  viability, T/C: 77.8%
[9]
  viability, T/C: 117%
[10]
  viability, T/C: 122%
[11]
  viability, T/C: 126%
[12]
  viability, T/C: 107%
Second compound 1 µM, first compound 3.16 µM
  viability, T/C: 123%
Second compound 1 µM, first compound 10 µM
  viability, T/C: 81.3%
[13]
  viability, T/C: 90.6%
[14]
  viability, T/C: 113%
[15]
  viability, T/C: 90.9%
[16]
  viability, T/C: 101%
Second compound 3.16 µM, first compound 3.16 µM
  viability, T/C: 92.3%
Second compound 3.16 µM, first compound 10 µM
  viability, T/C: 69.9%
[17]
  viability, T/C: 25.2%
[18]
  viability, T/C: 27.3%
[19]
  viability, T/C: 29.9%
[20]
  viability, T/C: 24.7%
Second compound 10 µM, first compound 3.16 µM
  viability, T/C: 25.9%
Second compound 10 µM, first compound 10 µM
  viability, T/C: 20.2%

## O=C(C=Cn1cnc(-c2cc(C(F)(F)F)cc(C(F)(F)F)c2)n1)NNc1cnccn1 + Cc1cncc(-c2nc(NCCc3c[nH]c4ccccc34)c3ncn(C(C)C)c3n2)c1
Second compound 0.1 µM
  IC50: > 3000 nM
Second compound 0.316 µM
  IC50: > 3000 nM
Second compound 1 µM
  IC50: > 3000 nM
Second compound 3.16 µM
  IC50: > 3000 nM
Second compound 10 µM
  IC50: < 9.49 nM
Second compound 0.1 µM, first compound 0.00949 µM
  viability, T/C: 97.5%
Second compound 0.1 µM, first compound 0.03 µM
  viability, T/C: 97.4%
Second compound 0.1 µM, first compound 0.0949 µM
  viability, T/C: 86.4%
Second compound 0.1 µM, first compound 0.3 µM
  viability, T/C: 81.4%
Second compound 0.1 µM, first compound 0.949 µM
  viability, T/C: 69.4%
Second compound 0.1 µM, first compound 3 µM
  viability, T/C: 67.8%
Second compound 0.316 µM, first compound 0.00949 µM
  viability, T/C: 83.2%
Second compound 0.316 µM, first compound 0.03 µM
  viability, T/C: 92%
Second compound 0.316 µM, first compound 0.0949 µM
  viability, T/C: 89.2%
Second compound 0.316 µM, first compound 0.3 µM
  viability, T/C: 76.3%
Second compound 0.316 µM, first compound 0.949 µM
  viability, T/C: 76.8%
Second compound 0.316 µM, first compound 3 µM
  viability, T/C: 74.2%
Second compound 1 µM, first compound 0.00949 µM
  viability, T/C: 102%
Second compound 1 µM, first compound 0.03 µM
  viability, T/C: 111%
Second compound 1 µM, first compound 0.0949 µM
  viability, T/C: 92.9%
Second compound 1 µM, first compound 0.3 µM
  viability, T/C: 87.1%
Second compound 1 µM, first compound 0.949 µM
  viability, T/C: 79.7%
Second compound 1 µM, first compound 3 µM
  viability, T/C: 72.2%
Second compound 3.16 µM, first compound 0.00949 µM
  viability, T/C: 118%
Second compound 3.16 µM, first compound 0.03 µM
  viability, T/C: 113%
Second compound 3.16 µM, first compound 0.0949 µM
  viability, T/C: 93.9%
Second compound 3.16 µM, first compound 0.3 µM
  viability, T/C: 97.2%
Second compound 3.16 µM, first compound 0.949 µM
  viability, T/C: 76.2%
Second compound 3.16 µM, first compound 3 µM
  viability, T/C: 70.5%
Second compound 10 µM, first compound 0.00949 µM
  viability, T/C: 20.1%
Second compound 10 µM, first compound 0.03 µM
  viability, T/C: 22.6%
Second compound 10 µM, first compound 0.0949 µM
  viability, T/C: 25.2%
Second compound 10 µM, first compound 0.3 µM
  viability, T/C: 26.4%
Second compound 10 µM, first compound 0.949 µM
  viability, T/C: 35%
Second compound 10 µM, first compound 3 µM
  viability, T/C: 32.9%
